Assay results published in patent US11999759B2, “Boronic acid derivatives and therapeutic uses thereof” (Qpex Biopharma, Inc., priority 2016, dated 2024).
Read-outs that look alike come from different tables or passages of the source.

Experiments:
[1] = Stability of compound 13 prodrugs in human liver microsomes (HLM); type: in vitro ADME; conditions: 0.500 mg/mL human liver microsomes, no cofactors, prodrug 1.00 μM; for half-life at 1 μM: pH 7.4, read-out: Estimated half-life (minutes) (rounded to nearest integer value)
Experimental: In the meantime, a 20.0 mg/mL solution of human liver microsomes (XenoTech, LLC) was diluted to 1.00 mg/mL (2× final concentration). Esterase activity for each lot of microsomes used was established by assaying an unrelated ester prodrug as a control. Both the Eppendorfs for each timepoint and the diluted liver microsomes were then warmed to 37° C. in a water bath. No cofactors (e.g. NADPH) were added to ensure that only hydrolytic reactions as opposed to reactions mediated by other cofactor-dependent enzymes (e.g. CYP450 enzymes) would take place. To initiate the reaction, 50 μL of diluted human liver microsomes was added to tubes for all timepoints using a repeating-tip pipette, thereby bringing the final concentration of test compound to 1.00 μM and the final concentration of human liver microsomes to 0.500 mg/mL. At each timepoint, the reaction was halted and proteins precipitated through the addition of 200 μL of 10:45:45 water:methanol:acetonitrile v/v/v containing an unrelated ester prodrug at 250 ng/mL as an internal standard. […] Sample analysis for microsome stability experiments was conducted using a 20.0 μL injection on a LEAP PAL autosampler with Agilent 1100 binary pump HPLC coupled to an AB Sciex 3200 QTrap mass spectrometer. […] Detection was in positive mode; source parameters and parent-daughter ion selection criteria were chosen as needed for each compound to achieve an appropriate limit of detection and signal-to-noise ratio. The samples were analyzed together with appropriate blanks in order to ensure specificity. The rate of hydrolysis for each prodrug was determined by monitoring the concentration of test compound as follows. The peak area for the analyte was divided by the peak area for the internal standard to give an area ratio. The area ratio for each of the two replicates at each timepoint was divided by the area ratio for timepoint 0 to give the percent remaining at each timepoint. The natural logarithm of the percent remaining versus time for all replicates was plotted using Microsoft Excel and fitted to a linear trendline.

[2] = system: PAM1154/KPC-2 (lacked MexAB-OprM); test: Biapenem potentiation (MPC64) in PAM1154/KPC-2; type: cell-based, Pseudomonas aeruginosa; parameters: PAM1154/KPC-2 Biapenem MPC64: unit not given here; conditions: BLI potency to decrease biapenem MIC 64-fold, from 32 to 0.5 μg/ml; efflux deficient strain
Experimental: (§1) Efflux of BLIs from Pseudomonas aeruginosa by the MexAB-OprM efflux pump was also evaluated. The plasmid expressing the gene encoding KPC-2 was introduced into two strains of P. aeruginosa, PAM1032 and PAM1154 that overexpressed or lacked MexAB-OprM, respectively. Due to expression of KPC-2 both strains became resistant to biapenem. […] Potency of BLIs to potentiate biapenem in these strains was determined. […] The ratio of MPC64 values for each BLI in PAM1032/KPC-2 (efflux proficient) and PAM1154/KPC-2 (efflux deficient) was determined to generate the Efflux Index (EI) as shown in Table 8.

CTX-M-14 = CTX-M-14 (Escherichia coli, UniProt Q9L5C7); test: Inhibition of nitrocefin cleavage by purified CTX-M-14; type: biochemical; conditions: nitrocefin reporter substrate; 10 min preincubation at room temperature; read-out: Ki (CTX-M-14, NCF)
Sequence of CTX-M-14 (Q9L5C7 29-291, species assumed): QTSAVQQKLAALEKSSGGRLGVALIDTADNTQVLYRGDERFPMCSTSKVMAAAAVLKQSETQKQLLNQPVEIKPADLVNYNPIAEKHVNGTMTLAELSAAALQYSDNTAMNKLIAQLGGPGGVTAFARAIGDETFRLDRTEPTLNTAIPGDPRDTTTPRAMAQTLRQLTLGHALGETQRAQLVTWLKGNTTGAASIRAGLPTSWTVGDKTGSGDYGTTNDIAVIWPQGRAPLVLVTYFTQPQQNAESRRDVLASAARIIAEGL
Experimental: (§2) Ki values of inhibition of purified class A, C and D enzymes were determined spectrophotometrically using nitrocefin as reporter substrate. Purified enzymes were mixed with various concentrations of inhibitors in reaction buffer and incubated for 10 min at room temperature. Nitrocefin was added and substrate cleavage profiles were recorded at 490 nm every 10 sec for 10 min.

Pa-AmpC = Pa-AmpC (Pseudomonas aeruginosa, UniProt P24735); test: biochemical
Sequence of Pa-AmpC (P24735 27-397): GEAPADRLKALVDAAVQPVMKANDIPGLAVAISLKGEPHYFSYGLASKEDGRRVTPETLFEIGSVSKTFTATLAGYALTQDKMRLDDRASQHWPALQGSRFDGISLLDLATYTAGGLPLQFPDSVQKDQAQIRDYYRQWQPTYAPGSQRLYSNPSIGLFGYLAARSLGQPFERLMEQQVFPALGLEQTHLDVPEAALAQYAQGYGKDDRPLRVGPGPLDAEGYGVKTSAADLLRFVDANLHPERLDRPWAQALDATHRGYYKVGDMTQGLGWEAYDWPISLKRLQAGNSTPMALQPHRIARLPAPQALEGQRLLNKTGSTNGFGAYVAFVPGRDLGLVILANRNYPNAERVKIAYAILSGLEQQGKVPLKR
Experimental: as §2

P99 = P99 (Enterobacter cloacae, UniProt P05364); test: biochemical; conditions: nitrocefin reporter substrate; 10 min preincubation at room temperature; read-out: Ki (P99, NCF)
Sequence of P99 (P05364 21-381): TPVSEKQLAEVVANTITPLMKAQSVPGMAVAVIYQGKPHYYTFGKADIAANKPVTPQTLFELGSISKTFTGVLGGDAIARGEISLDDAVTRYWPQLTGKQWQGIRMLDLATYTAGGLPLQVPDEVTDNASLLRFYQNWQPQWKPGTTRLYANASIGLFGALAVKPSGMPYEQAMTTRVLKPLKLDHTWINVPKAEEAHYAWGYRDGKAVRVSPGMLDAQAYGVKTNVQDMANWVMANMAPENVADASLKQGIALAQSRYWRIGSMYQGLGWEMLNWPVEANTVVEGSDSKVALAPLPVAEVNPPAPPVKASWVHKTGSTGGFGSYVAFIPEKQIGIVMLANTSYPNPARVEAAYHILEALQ
Experimental: as §2

KPC-2 = KPC-2 (Klebsiella pneumoniae, UniProt Q9F663); test: Inhibition of nitrocefin cleavage by purified KPC-2; type: biochemical; conditions: nitrocefin reporter substrate; 10 min preincubation at room temperature; read-out: Ki (KPC-2, NCF)
Sequence of KPC-2 (Q9F663 25-293 limits assumed): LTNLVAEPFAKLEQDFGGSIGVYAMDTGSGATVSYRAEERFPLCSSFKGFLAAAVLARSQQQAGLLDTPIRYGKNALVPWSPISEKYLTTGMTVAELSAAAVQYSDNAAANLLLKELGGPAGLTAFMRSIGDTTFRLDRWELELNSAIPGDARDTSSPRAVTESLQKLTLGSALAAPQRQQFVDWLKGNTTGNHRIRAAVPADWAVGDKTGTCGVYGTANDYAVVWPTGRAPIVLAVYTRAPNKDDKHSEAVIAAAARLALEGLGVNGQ
Experimental: as §2, with “min. These experiments confirmed that the described compounds are inhibitors with a broad-spectrum of activity towards various β-lactamases.” for “min.”

OXA-23 = OXA-23 (Acinetobacter baumannii, UniProt Q9L4P2); test: Inhibition of nitrocefin cleavage by purified OXA-23; type: biochemical; conditions: nitrocefin reporter substrate; 10 min preincubation at room temperature; read-out: Ki (OXA-23, NCF)
Sequence of OXA-23 (Q9L4P2 18-273): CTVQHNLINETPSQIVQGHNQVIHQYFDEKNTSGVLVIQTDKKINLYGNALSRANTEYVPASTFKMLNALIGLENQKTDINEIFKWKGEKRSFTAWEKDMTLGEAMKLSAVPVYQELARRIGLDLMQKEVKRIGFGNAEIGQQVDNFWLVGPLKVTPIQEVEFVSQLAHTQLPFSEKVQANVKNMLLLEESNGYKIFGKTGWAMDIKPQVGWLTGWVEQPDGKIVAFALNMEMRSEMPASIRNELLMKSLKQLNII
Experimental: as §2, with “min. These experiments confirmed that the described compounds are inhibitors with a broad-spectrum of activity towards various β-lactamases.” for “min.”

OXA-48 = OXA-48 (Klebsiella pneumoniae, UniProt Q6XEC0); test: Inhibition of nitrocefin cleavage by purified OXA-48; type: biochemical; conditions: nitrocefin reporter substrate; 10 min preincubation at room temperature; read-out: Ki (OXA-48, NCF)
Sequence of OXA-48 (Q6XEC0 23-265, looked up): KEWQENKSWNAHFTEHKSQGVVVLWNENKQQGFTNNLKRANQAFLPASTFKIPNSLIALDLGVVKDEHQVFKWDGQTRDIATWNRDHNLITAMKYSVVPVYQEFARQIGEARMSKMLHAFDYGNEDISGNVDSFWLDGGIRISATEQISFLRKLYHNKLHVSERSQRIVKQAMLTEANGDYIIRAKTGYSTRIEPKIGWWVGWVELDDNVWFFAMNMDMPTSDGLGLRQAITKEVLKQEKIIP
Experimental: as §2, with “min. These experiments confirmed that the described compounds are inhibitors with a broad-spectrum of activity towards various β-lactamases.” for “min.”

[3] = system: PAM1032/KPC-2 (overexpressed MexAB-OprM); test: Biapenem potentiation (MPC64) in PAM1032/KPC-2; type: cell-based, Pseudomonas aeruginosa; parameters: PAM1032/KPC-2 Biapenem MPC64: unit not given here; conditions: BLI potency to decrease biapenem MIC 64-fold, from 32 to 0.5 μg/ml; efflux proficient strain
Experimental: as §1

IMP-1 = IMP-1 (Serratia marcescens, UniProt P52699); test: Inhibition of imipenem cleavage by purified IMP-1; type: biochemical; conditions: imipenem reporter substrate; 37° C.; read-out: Ki (IMP-1, IMI)
Sequence of IMP-1 (P52699 19-246, looked up, species assumed): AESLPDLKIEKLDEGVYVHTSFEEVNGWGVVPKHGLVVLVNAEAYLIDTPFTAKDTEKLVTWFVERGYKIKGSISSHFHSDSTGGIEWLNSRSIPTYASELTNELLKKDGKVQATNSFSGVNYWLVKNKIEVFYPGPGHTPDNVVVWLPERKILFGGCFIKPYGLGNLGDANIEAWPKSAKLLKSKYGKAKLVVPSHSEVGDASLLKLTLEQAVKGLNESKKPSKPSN
Experimental: Ki values of inhibition of purified class B enzymes NDM-1 and IMP-1 were determined spectrophotometrically using imipenem as reporter substrate. Purified enzymes were mixed with various concentrations of inhibitors in reaction buffer and incubated for 10 min at room temperature. Imipenem was added and substrate cleavage profiles were recorded at 294 nm every 30 seconds for 30 minutes at 37° C. These experiments further confirmed that the described compounds have the ability to inhibit carbapenemase activity of metallo-beta-lactamases.

VIM-1 = VIM-1 (Pseudomonas aeruginosa, UniProt A0A0F7KYQ8); test: Inhibition of nitrocefin cleavage by purified VIM-1; type: biochemical; conditions: nitrocefin reporter substrate; 10 min preincubation at room temperature; read-out: Ki (VIM-1, NCF)
NDM-1 = NDM-1 (Klebsiella pneumoniae, UniProt C7C422); test: Inhibition of imipenem cleavage by purified NDM-1; type: biochemical; conditions: imipenem reporter substrate; 37° C.; read-out: Ki (NDM-1, IMI)
Sequence of NDM-1 (C7C422 29-270, looked up, species assumed): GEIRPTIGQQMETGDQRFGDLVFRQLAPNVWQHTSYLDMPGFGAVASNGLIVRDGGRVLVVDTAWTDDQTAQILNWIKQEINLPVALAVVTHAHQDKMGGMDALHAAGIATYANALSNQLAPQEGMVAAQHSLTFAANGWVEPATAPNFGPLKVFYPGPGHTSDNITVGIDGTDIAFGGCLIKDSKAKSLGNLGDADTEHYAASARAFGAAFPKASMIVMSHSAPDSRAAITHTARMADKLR
Experimental: Purified enzymes were mixed with various concentrations of inhibitors in reaction buffer and incubated for 10 min at room temperature. Imipenem was added and substrate cleavage profiles were recorded at 294 nm every 30 seconds for 30 minutes at 37° C.

[4] = nitrocefin reporter substrate, 10 min preincubation at room temperature, read-out: Ki (Pa-AmpC, NCF)

Compound	Average % of initial area ratio at t = 0 min [1]	Average % of initial area ratio at t = 5 min [1]	Average % of initial area ratio at t = 10 min [1]	Average % of initial area ratio at t = 30 min [1]	half-life at 1 μM [1]	PAM1154/KPC-2 Biapenem MPC64 [2]	Ki (CTX-M-14)	Ki (Pa-AmpC; [4])	Ki (P99)	Ki (KPC-2)	Ki (OXA-23)	Ki (OXA-48)	PAM1032/KPC-2 Biapenem MPC64 [3]	Ki (IMP-1)	Ki (VIM-1)	Ki (NDM-1)	Ki (Pa-AmpC)
O=C(OCOC(=O)C1CC1)c1c(F)ccc2c1OB(O)[C@@H]1C[C@H]21 [Compound 27]	100%	91.4%	80.4%	25.0%	14 min	–	–	–	–	–	–	–	–	–	–	–	–
COc1ccc2c(c1C(=O)O)OB(O)C(F)=C2 [Compound 8, 3-Fluoro-2-hydroxy-7-methoxy-1,2-benzoxaborinine-8-carboxylic acid]	–	–	–	–	–	2.5	< 0.1 µM	< 0.1 µM	< 0.1 µM	< 0.1 µM	< 0.1 µM	< 0.1 µM	2.5	> 1 µM	0.1 to 1 µM	–	–
COc1ccc2c(c1C(=O)O)OB(O)C1=C2COC1 [Compound 24, 4,4-dihydroxy-7-methoxy-1,3-dihydrofuro[3,4-c][1,2]benzoxaborinine-6-carboxylic acid]	–	–	–	–	–	–	< 0.1 µM	< 0.1 µM	< 0.1 µM	< 0.1 µM	< 0.1 µM	< 0.1 µM	–	> 1 µM	> 1 µM	0.1 to 1 µM	–
O=C(O)c1c(F)ccc2c1OB(O)C1CC21 (stereo not drawn) [Compound 4, 5-Fluoro-2-hydroxy-1a,7b-dihydro-1H-cyclopropa[c][1,2]benzoxaborinine-4-carboxylic acid]	–	–	–	–	–	2.5	< 0.1 µM	< 0.1 µM	< 0.1 µM	< 0.1 µM	< 0.1 µM	< 0.1 µM	2.5	> 1 µM	0.1 to 1 µM	–	–
O=C(O)c1c(F)ccc2c1OB(O)CC21CC1 [Compound 15, 8-fluoro-4,4-dihydroxy-spiro[5-oxa-4-boranuidabicyclo[4.4.0]deca-1(6),7,9-triene-2,1′-cyclopropane]-7-carboxylic acid]	–	–	–	–	–	1.25	< 0.1 µM	< 0.1 µM	< 0.1 µM	< 0.1 µM	< 0.1 µM	< 0.1 µM	5	> 1 µM	> 1 µM	0.1 to 1 µM	–
CCCC(=O)OCOC(=O)c1c(F)ccc2c1OB(O)[C@@H]1C[C@H]21 [Compound 26, Butanoyloxymethyl (1aR,7bS)-5-fluoro-2-hydroxy-1a,7b-dihydro-1H-cyclopropa[c][1,2]benzoxaborinine-4-carboxylate]	100%	73.4%	55.9%	11.9%	10 min	–	–	–	–	–	–	–	–	–	–	–	–
O=C(O)c1nccc2c1OB(O)[C@H]1C[C@@H]21 [Compound 20, (1aS,7bR)-2-hydroxy-1a,7b-dihydro-1H-cyclopropa[6,7]oxaborinino[2,3-c]pyridine-4-carboxylic acid]	–	–	–	–	–	5	< 0.1 µM	> 1 µM	> 1 µM	0.1 to 1 µM	0.1 to 1 µM	< 0.1 µM	5	–	> 1 µM	> 1 µM	–
CC(=O)OCOC(=O)c1c(F)ccc2c1OB(O)[C@@H]1C[C@H]21 [Compound 28, Acetoxymethyl (1aR,7bS)-5-fluoro-2-hydroxy-1a,7b-dihydro-1H-cyclopropa[c][1,2]benzoxaborinine-4-carboxylate]	100%	50.8%	23.3%	19.6%	15 min	–	–	–	–	–	–	–	–	–	–	–	–
O=C(O)c1nccc2c1OB(O)[C@@H]1C[C@H]21 [Compound 21, (1aR,7bS)-2-hydroxy-1a,7b-dihydro-1H-cyclopropa[6,7]oxaborinino[2,3-c]pyridine-4-carboxylic acid]	–	–	–	–	–	1.25	< 0.1 µM	> 1 µM	0.1 to 1 µM	0.1 to 1 µM	< 0.1 µM	< 0.1 µM	1.25	–	0.1 to 1 µM	0.1 to 1 µM	–
C[C@]1(Cn2ccnn2)[C@H](C(=O)O)N2C(=O)C[C@H]2S1(=O)=O [Tazobactam, reference compound]	–	–	–	–	–	–	–	–	–	> 1 µM	0.1 to 1 µM	0.1 to 1 µM	–	> 1 µM	> 1 µM	> 1 µM	–
O=C(O)[C@H]1/C(=C/CO)O[C@@H]2CC(=O)N21 [Clavulanic Acid, reference compound]	–	–	–	–	–	–	< 0.1 µM	–	–	> 1 µM	> 1 µM	> 1 µM	–	> 1 µM	> 1 µM	> 1 µM	> 1 µM
COc1ccc2c(c1C(=O)O)OB(O)C=C2 [Compound 9, 2-Hydroxy-7-methoxy-1,2-benzoxaborinine-8-carboxylic acid]	–	–	–	–	–	1.25	–	0.1 to 1 µM	< 0.1 µM	< 0.1 µM	< 0.1 µM	< 0.1 µM	>10	> 1 µM	> 1 µM	> 1 µM	–
